# Measured values published in patent publication US20250230193A1, “CYCLIC COMPOUND HAVING SELECTIVE KRAS INHIBITORY EFFECT ON HRAS AND NRAS” (CHUGAI SEIYAKU KABUSHIKI KAISHA, priority 2022, published 2025).
# Where a SMILES comes first, the peptide text is derived from it. Bridges are numbered along the chain shown (N, C = ends). [ ]: non-standard residue; d: D form. The star is where a group is joined. hPhe(3,5-F2-4-CF3) = N[C@@H](CCc1cc(F)c(C(F)(F)F)c(F)c1)C(=O)O; NPrPhe(4-CF3) = CCCN[C@@H](Cc1ccc(C(F)(F)F)cc1)C(=O)O; NMeGly(cPent) = CN[C@H](C(=O)O)C1CCCC1; Nva(3-Et) = CCC(CC)[C@H](N)C(=O)O; NMeD = CN[C@@H](CC(=O)O)C(=O)O; NMeL = CN[C@@H](CC(C)C)C(=O)O; Morpholide = C1CN(*)CCO1; Ac5c = NC1(C(=O)O)CCCC1; Sar = CNCC(=O)O
# Key:
# [1] = target: GDP-bound HRAS wild-type protein (Homo sapiens, UniProt P01112); assay: Binding to HRAS by surface plasmon resonance (SPR), Single Cycle Kinetics; settings: SPR; for HRAS/KRAS (ratio of KD value for HRAS to KD value for KRAS) / HRAS/KRAS (ratio of KD value with respect to HRAS to KD value with respect to KRAS): GDP-bound HRAS wild-type vs GDP-bound KRAS wild-type
# Chain of GDP-bound HRAS wild-type protein (P01112 whole entry): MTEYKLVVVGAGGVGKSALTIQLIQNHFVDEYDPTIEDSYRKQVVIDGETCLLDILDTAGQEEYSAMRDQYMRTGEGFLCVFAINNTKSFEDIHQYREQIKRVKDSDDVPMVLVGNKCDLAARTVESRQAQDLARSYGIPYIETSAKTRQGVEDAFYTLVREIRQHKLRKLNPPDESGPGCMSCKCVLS
# [2] = target: GDP-bound NRAS wild-type protein (Homo sapiens, UniProt P01111); assay: Binding to NRAS by surface plasmon resonance (SPR), Single Cycle Kinetics; settings: SPR; for NRAS/KRAS (ratio of KD value for NRAS to KD value for KRAS) / NRAS/KRAS (ratio of KD value with respect to NRAS to KD value with respect to KRAS): GDP-bound NRAS wild-type vs GDP-bound KRAS wild-type
# Chain of GDP-bound NRAS wild-type protein (P01111 whole entry): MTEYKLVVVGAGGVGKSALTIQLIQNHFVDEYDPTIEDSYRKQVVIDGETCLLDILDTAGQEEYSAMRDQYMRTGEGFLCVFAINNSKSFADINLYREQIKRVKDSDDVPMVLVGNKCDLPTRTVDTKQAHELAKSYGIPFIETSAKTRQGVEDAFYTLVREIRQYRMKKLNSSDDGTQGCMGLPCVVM
Structure (SMILES),HRAS/KRAS (ratio of KD value for HRAS to KD value for KRAS) [1],NRAS/KRAS (ratio of KD value for NRAS to KD value for KRAS) [2],HRAS/KRAS (ratio of KD value with respect to HRAS to KD value with respect to KRAS) [1],NRAS/KRAS (ratio of KD value with respect to NRAS to KD value with respect to KRAS) [2],other results
CCC[C@H]1C(=O)N[C@@H]([C@@H](C)CC)C(=O)N(C)CC(=O)N(C)[C@H]2C/C=C\CCN(C2=O)[C@@H](Cc2ccc(C(F)(F)F)cc2)C(=O)N(C)CC(=O)N[C@@H](CCc2cc(F)c(C(F)(F)F)c(F)c2)C(=O)N2C[C@H](OCC)C[C@H]2C(=O)NC2(CC(F)(F)C2)C(=O)N(C)[C@@H](C2CCCC2)C(=O)N(C)[C@H](C(=O)N(C)CC)CC(=O)N1C [PP1735],A (a compound having 10 or more and less than 20 is denoted as A),AA (a compound having 20 or more is denoted as AA),,,
"CCCN1C(=O)CN(C)C(=O)CN(C)C(=O)[C@H](C(CC)CC)NC(=O)[C@H](CC(C)C)N(C)C(=O)C[C@@H](C(=O)N2CCOCC2)N(C)C(=O)[C@H](C2CCCC2)N(C)C(=O)C2(CCCC2)NC(=O)[C@@H]2CCCN2C(=O)[C@H](CCc2cc(F)c(C(F)(F)F)c(F)c2)NC(=O)CN(C)C(=O)[C@@H]1Cc1ccc(C(F)(F)F)cc1 [PP0768] ([NMeL][Nva(3-Et)][Sar][Sar][NPrPhe(4-CF3)][Sar][hPhe(3,5-F2-4-CF3)]P[Ac5c][NMeGly(cPent)][NMeD]-Morpholide; lactam N-11)",,,,,HRAS/KRAS (ratio of KD value with respect to GDP-bound HRAS wild-type protein to KD value with respect to KRAS) ([1]; KD ratio HRAS/KRAS): C (A compound having a KD ratio of 0.1 or more and less than 3 is denoted as C); NRAS/KRAS (ratio of KD value with respect to GDP-bound NRAS wild-type protein to KD value with respect to KRAS) ([2]; KD ratio NRAS/KRAS): B (a compound having 3 or more and less than 10 is denoted as B)
CCC[C@H]1C(=O)N[C@@H]([C@@H](C)CC)C(=O)N2CCC[C@H]2C(=O)N(C)[C@H]2C/C=C\CCN(C2=O)[C@@H](CC2CCCCC2)C(=O)N(C)CC(=O)N[C@@H](CCc2ccc(C(F)(F)F)c(OC)c2)C(=O)N2C[C@@H](C)C[C@H]2C(=O)N(C)C2(CCC2)C(=O)N(C)[C@@H](C2CCCC2)C(=O)N(C)[C@H](C(=O)N(C)C)CC(=O)N1C [PP2374],,,A (a compound having 10 or more and less than 20 is denoted as A),A (a compound having 10 or more and less than 20 is denoted as A),
CCC[C@H]1C(=O)N[C@@H]([C@@H](C)CC)C(=O)N(C)CC(=O)N(C)[C@H]2C/C=C\CCN(C2=O)[C@@H](Cc2ccc(C(F)(F)F)cc2)C(=O)N(C)CC(=O)N[C@@H](CCc2cc(F)c(C(F)(F)F)c(F)c2)C(=O)N2C[C@H](OCC)C[C@H]2C(=O)NC2(CC(C)(C)C2)C(=O)N(C)[C@@H](C2CCCC2)C(=O)N(C)[C@H](C(=O)N2CCC2)CC(=O)N1C [PP1943],B (a compound having 3 or more and less than 10 is denoted as B),A (a compound having 10 or more and less than 20 is denoted as A),,,
CCC[C@H]1C(=O)N[C@@H](CC(C)C)C(=O)N(C2CC2)CC(=O)N(C)[C@H]2C/C=C\CCN(C2=O)[C@@H](Cc2ccc(C)cc2)C(=O)N(C)CC(=O)N[C@@H](CCc2cc(F)c(C(F)(F)F)c(F)c2)C(=O)N2C[C@H](OCC)C[C@H]2C(=O)NC2(CC(C)(C)C2)C(=O)N(C)[C@@H](C2CCCC2)C(=O)N(C)[C@H](C(=O)N(C)C)CC(=O)N1C [PP2508],,,B (a compound having 3 or more and less than 10 is denoted as B),A (a compound having 10 or more and less than 20 is denoted as A),
CCC[C@H]1C(=O)N[C@@H]([C@@H](C)CC)C(=O)N(C)CC(=O)N(C)[C@H]2C/C=C\CCN(C2=O)[C@@H](Cc2ccc(C(F)(F)F)cc2)C(=O)N(C)CC(=O)N[C@@H](CCc2ccc(Cl)c(Cl)c2)C(=O)N2C[C@H](OCC)C[C@H]2C(=O)NC2(CC(C)(C)C2)C(=O)N(C)[C@@H](C2CCCC2)C(=O)N(C)[C@H](C(=O)N(C)C)CC(=O)N1C [PP1932],A (a compound having 10 or more and less than 20 is denoted as A),A (a compound having 10 or more and less than 20 is denoted as A),,,
